Data from ChEMBL document CHEMBL3885881, “DrugMatrix”.

Organism: Rattus norvegicus
Experiment: DrugMatrix - Regimen: Daily Repeat
Type: toxicity, organism-based, Sprague-Dawley
Parameters: regimen Daily Repeat, gender Male, age 6-8 weeks
Conditions: in vivo, sc, route subcutaneous, […]; for ABSOLUTE BASOPHIL / ABSOLUTE EOSINOPHIL / ABSOLUTE LYMPHOCYTE / ABSOLUTE MONOCYTE / ABSOLUTE SEGMENTED NEUTROPHIL / BASOPHIL / EOSINOPHIL / ERYTHROCYTE COUNT / HEMATOCRIT / HEMOGLOBIN / LEUKOCYTE COUNT / LYMPHOCYTE / MEAN CORPUSCULAR HEMOGLOBIN / MEAN CORPUSCULAR HEMOGLOBIN CONCENTRATION / MONOCYTE / NUCLEATED RED BLOOD CELLS / PLATELET COUNT: tissue Blood; for ALANINE AMINOTRANSFERASE / ALBUMIN / ALKALINE PHOSPHATASE / ASPARTATE AMINOTRANSFERASE / BLOOD UREA NITROGEN / CARBON DIOXIDE / CHLORIDE / CHOLESTEROL / CREATINE PHOSPHOKINASE / CREATININE / GLUCOSE / LACTATE DEHYDROGENASE / PHOSPHORUS / POTASSIUM / SODIUM / TOTAL BILIRUBIN / TOTAL PROTEIN / URIC ACID: tissue Plasma
[1] = 130 mg/kg, 72 h, dose level High, time 3 day
[2] = 130 mg/kg, 120 h, dose level High, time 5 day
[3] = 72 h, dose 2.4 mg/Kg, dose level Low, time 3 day
[4] = 120 h, dose 2.4 mg/Kg, dose level Low, time 5 day

CC(C)(C)NCC(O)c1cc(O)cc(O)c1 (stereo not given) [TERBUTALINE]
ABSOLUTE BASOPHIL [1]: 0 CELLS/uL
ABSOLUTE EOSINOPHIL [1]: 167.67 CELLS/uL
ABSOLUTE LYMPHOCYTE [1]: 11900.33 CELLS/uL
ABSOLUTE MONOCYTE [1]: 398.67 CELLS/uL
ABSOLUTE SEGMENTED NEUTROPHIL [1]: 1166.67 CELLS/uL
BASOPHIL [1]: 0%
EOSINOPHIL [1]: 1.33%
ERYTHROCYTE COUNT [1]: 5.52 x10E6/uL
HEMATOCRIT [1]: 35.5%
HEMOGLOBIN [1]: 13.33 G/DL
LEUKOCYTE COUNT [1]: 13.63 x10E3/uL
LYMPHOCYTE [1]: 87%
MEAN CORPUSCULAR HEMOGLOBIN [1]: 24.2 pg
MEAN CORPUSCULAR HEMOGLOBIN CONCENTRATION [1]: 37.57 G/DL
MONOCYTE [1]: 3%
NUCLEATED RED BLOOD CELLS [1]: 0 /100WBC
PLATELET COUNT [1]: 1383.67 x10E3/uL
ALANINE AMINOTRANSFERASE [1]: 49 u/L
ALBUMIN [1]: 4.03 G/DL
ALKALINE PHOSPHATASE [1]: 361 u/L
ASPARTATE AMINOTRANSFERASE [1]: 73.33 u/L
BLOOD UREA NITROGEN [1]: 18.33 mg/dL
CARBON DIOXIDE [1]: 25.67 mmol/L
CHLORIDE [1]: 104 MEQ/L
CHOLESTEROL [1]: 72.33 mg/dL
CREATINE PHOSPHOKINASE [1]: 253.67 u/L
CREATININE [1]: 0.23 mg/dL
GLUCOSE [1]: 146 mg/dL
LACTATE DEHYDROGENASE [1]: 407 u/L
PHOSPHORUS [1]: 12.8 mg/dL
POTASSIUM [1]: 6.42 MEQ/L
SODIUM [1]: 145.5 MEQ/L
TOTAL BILIRUBIN [1]: 0.2 mg/dL
TOTAL PROTEIN [1]: 5.97 G/DL
URIC ACID [1]: 1.3 mg/dL
ABSOLUTE BASOPHIL [2]: 0 CELLS/uL
ABSOLUTE EOSINOPHIL [2]: 53.33 CELLS/uL
ABSOLUTE LYMPHOCYTE [2]: 12240 CELLS/uL
ABSOLUTE MONOCYTE [2]: 406 CELLS/uL
ABSOLUTE SEGMENTED NEUTROPHIL [2]: 2467.33 CELLS/uL
BASOPHIL [2]: 0%
EOSINOPHIL [2]: 0.33%
ERYTHROCYTE COUNT [2]: 6.08 x10E6/uL
HEMATOCRIT [2]: 37.43%
HEMOGLOBIN [2]: 14.03 G/DL
LEUKOCYTE COUNT [2]: 15.17 x10E3/uL
LYMPHOCYTE [2]: 80.67%
MEAN CORPUSCULAR HEMOGLOBIN [2]: 23.13 pg
MEAN CORPUSCULAR HEMOGLOBIN CONCENTRATION [2]: 37.47 G/DL
MONOCYTE [2]: 2.67%
NUCLEATED RED BLOOD CELLS [2]: 0.33 /100WBC
PLATELET COUNT [2]: 1346 x10E3/uL
ALANINE AMINOTRANSFERASE [2]: 52.67 u/L
ALBUMIN [2]: 4.13 G/DL
ALKALINE PHOSPHATASE [2]: 293.33 u/L
ASPARTATE AMINOTRANSFERASE [2]: 84.67 u/L
BLOOD UREA NITROGEN [2]: 17.33 mg/dL
CARBON DIOXIDE [2]: 28.33 mmol/L
CHLORIDE [2]: 101.33 MEQ/L
CHOLESTEROL [2]: 69 mg/dL
CREATINE PHOSPHOKINASE [2]: 289.33 u/L
CREATININE [2]: 0.22 mg/dL
GLUCOSE [2]: 150.67 mg/dL
LACTATE DEHYDROGENASE [2]: 492.33 u/L
PHOSPHORUS [2]: 14.6 mg/dL
POTASSIUM [2]: 6.32 MEQ/L
SODIUM [2]: 146.93 MEQ/L
TOTAL BILIRUBIN [2]: 0.2 mg/dL
TOTAL PROTEIN [2]: 6.13 G/DL
URIC ACID [2]: 1.93 mg/dL
ABSOLUTE BASOPHIL [3]: 0 CELLS/uL
ABSOLUTE EOSINOPHIL [3]: 181 CELLS/uL
ABSOLUTE LYMPHOCYTE [3]: 16357.33 CELLS/uL
ABSOLUTE MONOCYTE [3]: 366 CELLS/uL
ABSOLUTE SEGMENTED NEUTROPHIL [3]: 1395.67 CELLS/uL
BASOPHIL [3]: 0%
EOSINOPHIL [3]: 1%
ERYTHROCYTE COUNT [3]: 5.97 x10E6/uL
HEMATOCRIT [3]: 37.73%
HEMOGLOBIN [3]: 13.8 G/DL
LEUKOCYTE COUNT [3]: 18.3 x10E3/uL
LYMPHOCYTE [3]: 89.33%
MEAN CORPUSCULAR HEMOGLOBIN [3]: 23.13 pg
MEAN CORPUSCULAR HEMOGLOBIN CONCENTRATION [3]: 36.6 G/DL
MONOCYTE [3]: 2%
NUCLEATED RED BLOOD CELLS [3]: 0 /100WBC
PLATELET COUNT [3]: 1334.67 x10E3/uL
ALANINE AMINOTRANSFERASE [3]: 41.67 u/L
ALBUMIN [3]: 4.2 G/DL
ALKALINE PHOSPHATASE [3]: 286.67 u/L
ASPARTATE AMINOTRANSFERASE [3]: 75 u/L
BLOOD UREA NITROGEN [3]: 17 mg/dL
CARBON DIOXIDE [3]: 24.33 mmol/L
CHLORIDE [3]: 105.67 MEQ/L
CHOLESTEROL [3]: 72.67 mg/dL
CREATINE PHOSPHOKINASE [3]: 235.33 u/L
CREATININE [3]: 0.23 mg/dL
GLUCOSE [3]: 155.67 mg/dL
LACTATE DEHYDROGENASE [3]: 382 u/L
PHOSPHORUS [3]: 13.4 mg/dL
POTASSIUM [3]: 6.76 MEQ/L
SODIUM [3]: 149.43 MEQ/L
TOTAL BILIRUBIN [3]: 0.2 mg/dL
TOTAL PROTEIN [3]: 6.23 G/DL
URIC ACID [3]: 1.77 mg/dL
ABSOLUTE BASOPHIL [4]: 0 CELLS/uL
ABSOLUTE EOSINOPHIL [4]: 0 CELLS/uL
ABSOLUTE LYMPHOCYTE [4]: 13803 CELLS/uL
ABSOLUTE MONOCYTE [4]: 207 CELLS/uL
ABSOLUTE SEGMENTED NEUTROPHIL [4]: 2023.33 CELLS/uL
BASOPHIL [4]: 0%
EOSINOPHIL [4]: 0%
ERYTHROCYTE COUNT [4]: 5.8 x10E6/uL
HEMATOCRIT [4]: 36.37%
HEMOGLOBIN [4]: 13.53 G/DL
LEUKOCYTE COUNT [4]: 16.03 x10E3/uL
LYMPHOCYTE [4]: 86%
MEAN CORPUSCULAR HEMOGLOBIN [4]: 23.33 pg
MEAN CORPUSCULAR HEMOGLOBIN CONCENTRATION [4]: 37.23 G/DL
MONOCYTE [4]: 1.33%
NUCLEATED RED BLOOD CELLS [4]: 0 /100WBC
PLATELET COUNT [4]: 1437.33 x10E3/uL
ALANINE AMINOTRANSFERASE [4]: 49.33 u/L
ALBUMIN [4]: 4.13 G/DL
ALKALINE PHOSPHATASE [4]: 415 u/L
ASPARTATE AMINOTRANSFERASE [4]: 76 u/L
BLOOD UREA NITROGEN [4]: 20.33 mg/dL
CARBON DIOXIDE [4]: 27.67 mmol/L
CHLORIDE [4]: 105 MEQ/L
CHOLESTEROL [4]: 63 mg/dL
CREATINE PHOSPHOKINASE [4]: 180 u/L
CREATININE [4]: 0.22 mg/dL
GLUCOSE [4]: 154 mg/dL
LACTATE DEHYDROGENASE [4]: 224.33 u/L
PHOSPHORUS [4]: 13.03 mg/dL
POTASSIUM [4]: 6.39 MEQ/L
SODIUM [4]: 146.27 MEQ/L
TOTAL BILIRUBIN [4]: 0.17 mg/dL
TOTAL PROTEIN [4]: 5.87 G/DL
URIC ACID [4]: 1.57 mg/dL
